Measurements published in patent US20220363662A1, “COMPOUNDS AS LXR AGONISTS” (Integral Biosciences Privated Limited, priority 2021, published 2022).

Columns and labels:
LXR beta = molecular target: T1, LXR beta (Homo sapiens, UniProt P55055); assay: LXR beta agonist assay (Lanthascreen TR-FRET); format: biochemical; details: LXR beta-LBD 5 nM, read-out: LXR-β EC50
T1 construct: 5 μL of 4×LXR beta-LBD was added to each well (final concentration 5 nM); purchased Thermofisher PV4658
T1 sequence (P55055 222-460 limits assumed): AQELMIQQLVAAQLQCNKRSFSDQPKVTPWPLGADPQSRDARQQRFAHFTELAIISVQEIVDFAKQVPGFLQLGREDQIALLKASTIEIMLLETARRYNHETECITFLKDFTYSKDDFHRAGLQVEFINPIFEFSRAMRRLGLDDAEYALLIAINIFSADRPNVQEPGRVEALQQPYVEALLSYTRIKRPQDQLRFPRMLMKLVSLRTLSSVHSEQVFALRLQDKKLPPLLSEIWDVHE
In short: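 TR-FRET coactivator recruitment: 5 nM LXR beta-LBD with 100 nM Fl-D22 peptide and 10 nM Tb-anti-GST antibody (final) in Coregulator Buffer G, 60 min at 22° C, read hourly up to 4 hours. Duplicate three-fold titrations from 30 μM; EC50 by variable-slope nonlinear regression.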

HepG2 = assay: Cell viability assay (resazurin) in HepG2; format: cell-based; details: Homo sapiens, 96 hr exposure
Procedure: (§1) HepG2 (ATCC® HB-8065™), hepatocellular carcinoma, A549 (ATCC® CCL-185™), lung epithelial carcinoma, MCF7 (ATCC® HTB-22™), mammary gland epithelial carcinoma, MDA-MB-231 (ATCC® HTB-26™), TNBC, MiaPaCa-2 (ATCC® CRL-1420™) & Panc-1 (ATCC® CRL-1469™), pancreatic epithelial carcinoma, HCT116 (ATCC® CCL-247™), colon epithelial carcinoma and U87MG (ATCC® HTB-14™), brain epithelial carcinoma cell lines respectively were seeded in the respective medium (DMEM, Cat #10569044 with 10% FBS, Cat #16000044; Gibco for HepG2, A549, MCF7, MDA-MB-231, MiaPaCa-2, Panc-1, HCT116 and MEM, Cat #11095080 with 10% FBS for U87MG). Cells were allowed to grow at 37° C. for 24 hr in 5% CO2 (culture conditions) in a Nuaire incubator (humidified). Serially diluted compounds (100 μl) were added to the culture plate 24 hr later and the cultures were further incubated in culture conditions for 96 hr. Experiment was terminated at the completion of 96 hr exposure to the drug by replacing the medium with 100 μl of 1 mM of resazurin (R7017; Sigma) prepared in culture medium and the plates were further incubated in culture conditions for 4 hr. Fluorescence was then measured using a multimodal plate reader (Biotek Synergy Neo) at an excitation wavelength of 535 nm and emission wavelength of 590 nm to obtain relative fluorescence units. Data analysis was done by subtracting the background fluorescence (only medium blank) value from each reading and then normalizing with the vehicle control (DMSO treated cells) to obtain percent survival/proliferation. Percent survival at different doses was used to calculate IC50 by fitting the curve to the “four-parameter variable slope logistic model” using Prism Graph Pad.

A549 = assay: Cell viability assay (resazurin) in A549; format: cell-based; details: Homo sapiens, 96 hr exposure
Procedure: as §1

LXR alpha = molecular target: T2, LXR alpha (Homo sapiens, UniProt Q13133); assay: LXR alpha agonist assay (Lanthascreen TR-FRET); format: biochemical; details: LXR alpha-LBD 2.5 nM, read-out: LXR-α EC50
T2 construct: 5 μL of 4×LXR alpha-LBD was added to each well (final concentration 2.5 nM); purchased Thermofisher PV4655
T2 sequence (Q13133 209-447 limits assumed): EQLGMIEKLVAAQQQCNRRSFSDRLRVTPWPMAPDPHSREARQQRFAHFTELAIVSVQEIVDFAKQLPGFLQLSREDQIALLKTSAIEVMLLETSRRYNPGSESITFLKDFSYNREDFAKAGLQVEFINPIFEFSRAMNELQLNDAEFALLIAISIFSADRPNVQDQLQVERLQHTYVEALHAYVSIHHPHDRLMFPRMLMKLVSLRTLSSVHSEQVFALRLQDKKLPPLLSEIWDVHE
Procedure: EC50 values of compounds against LXR alpha were determined at Integral BioSciences (India) using Lanthascreen TR-FRET (Thermofisher, Cat #PV4655). Assay was performed in a 20 μL final volume in a Black 384-well plate (Corning, Cat #4511). Dose response curve for the compounds were prepared in duplicates with starting concentration at 30 μM and a three-fold titration was performed. The reaction buffer consisted of TR-FRET Coregulator Buffer H. To the compound dilution, 5 μL of 4×LXR alpha-LBD was added to each well (final concentration 2.5 nM). An equal volume (5 μL) containing 4×Fl-D22/Tb-anti GST antibody (final concentration 250 nM/10 nM) was added to initiate the enzyme reaction and the reaction was incubated for 60 min at 22° C. after which the plates were read using BioTek Plate reader for TR-FRET every hour up to 4 hours.
Analysis was done using the standard curve by non-linear regression, variable slope inhibitor curve fits (Graph-Pad Prism) and EC50's of compounds were determined wherever possible.

MDA-MB-231 = assay: Cell viability assay (resazurin) in MDA-MB-231; format: cell-based; details: Homo sapiens, 96 hr exposure, read-out: MDA_MB-231 Cell IC50
Procedure: as §1

HCT116 = assay: Cell viability assay (resazurin) in HCT116; format: cell-based; details: Homo sapiens, HCT-116; 96 hr exposure
Procedure: as §1

THP1 = assay: Cell viability assay in THP1; format: cell-based; details: Homo sapiens, THP-1
MCF7 = assay: Cell viability assay (resazurin) in MCF7; format: cell-based; details: Homo sapiens, 96 hr exposure
Procedure: as §1

CN(C)C(=O)c1ccc(N2CCN(C3CC4(C3)CN(C(=O)[C@](O)(c3ccccc3)C(F)(F)F)C4)CC2)cc1Cl (single isomer, unassigned) [Compound 1.17] was tested, and the EC50 (LXR beta) was 0.156 µM, the IC50 (HepG2) was 22.6 µM and the IC50 (A549) was greater than 30 µM. For the same compound, the EC50 (LXR alpha) was 10.6 µM and the IC50 (MDA-MB-231) was greater than 30 µM.
CN(C)C(=O)c1ccc(N2CCN(C3CC4(C3)CN(C(=O)[C@@](O)(c3ccccc3)C(F)(F)F)C4)CC2)cc1Cl (single isomer, unassigned) [Compound 1.18] showed an EC50 (LXR beta) of 1.58 µM and an EC50 (LXR alpha) of 5.96 µM.
Compound CC(C)[C@](O)(C(=O)N1CCC2(CC1)CN(C1CCN(c3ccc(C(=O)N(C)C)c(Cl)c3)CC1)C2)C(F)(F)F (single isomer, unassigned) [Compound 1.74] has an EC50 (LXR beta) of 0.75 µM, an IC50 (HepG2) greater than 30 µM and an EC50 (LXR alpha) of 1.25 µM.
CN(C)C(=O)c1ccc(N2CCN(C3CC4(C3)CN(S(=O)(=O)c3ccccc3C(F)(F)F)C4)CC2)cc1Cl [Compound 1.5, 2-chloro-N,N-dimethyl-4-(4-(2-(2-(trifluoromethyl)phenylsulfonyl)-2-azaspiro[3.3]heptan-6-yl)piperazin-1-yl)benzamide] was tested, and the EC50 (LXR beta) was 1.11 µM and the EC50 (LXR alpha) was greater than 30 µM.
Work on CN(C)C(=O)c1ccc(-c2nnc(C3=CCN(S(=O)(=O)c4ccccc4Cl)CC3)s2)cc1Cl [Compound 1.12, 2-chloro-4-(5-(1-(2-chlorophenylsulfonyl)-1,2,3,6-tetrahydropyridin-4-yl)-1,3,4-thiadiazol-2-yl)-N,N-dimethylbenzamide] yielded an EC50 (LXR beta) of 0.211 µM, an IC50 (HepG2) of 14.6 µM and an IC50 (A549) greater than 30 µM. It also gave an EC50 (LXR alpha) of 4.1 µM and an IC50 (MDA-MB-231) of 15.3 µM.
Compound O=C(N1CCC(C2CCN(c3cc(Cl)c4c(=O)[nH]ccc4c3)CC2)CC1)[C@](O)(c1ccccc1)C(F)(F)F [Compound 1.19, (R)-8-chloro-6-(1′-(3,3,3-trifluoro-2-hydroxy-2-phenylpropanoyl)-4,4′-bipiperidin-1-yl)isoquinolin-1(2H)-one] has an EC50 (LXR beta) of 0.451 µM, an IC50 (HepG2) of 3.7 µM and an IC50 (A549) of 6.9 µM. For the same compound, the EC50 (LXR alpha) was 0.41 µM and the IC50 (MDA-MB-231) was 7.2 µM.
Work on O=C(N1CCC(N2CCN(c3cc(Cl)c4c(=O)[nH]ccc4c3)CC2)CC1)C1(c2ccccc2)CCC1 [Compound 1.29, 8-chloro-6-(4-(1-(1-phenylcyclobutanecarbonyl)piperidin-4-yl)piperazin-1-yl)isoquinolin-1(2H)-one] yielded an EC50 (LXR beta) of 0.92 µM and an EC50 (LXR alpha) of 8.63 µM.
In the case of CN(C)C(=O)c1ccc(N[C@H]2CCN(C3CCN(C(=O)[C@](O)(c4ccccc4)C(F)(F)F)CC3)C2)cc1Cl [Compound 1.46, 2-chloro-N,N-dimethyl-4-((S)-1-(1-((R)-3,3,3-trifluoro-2-hydroxy-2-phenylpropanoyl)piperidin-4-yl)pyrrolidin-3-ylamino)benzamide], the IC50 (HCT116) is reported as greater than 30 µM, the EC50 (LXR beta) is reported as greater than 30 µM and the IC50 (A549) is reported as greater than 30 µM. For the same compound, the IC50 (THP1) was greater than 30 µM and the IC50 (MDA-MB-231) was greater than 30 µM.
CN(C)C(=O)c1ccc(NC2CCN(C3CCN(C(=O)[C@](O)(c4ccccc4)C(F)(F)F)CC3)CC2)cc1Cl [Compound 1.47, (R)-2-chloro-N,N-dimethyl-4-(1′-(3,3,3-trifluoro-2-hydroxy-2-phenylpropanoyl)-1,4′-bipiperidin-4-ylamino)benzamide] was tested, and the IC50 (HCT116) was greater than 30 µM, the EC50 (LXR beta) was 2.91 µM and the IC50 (A549) was greater than 30 µM. For the same compound, the IC50 (THP1) was greater than 30 µM and the IC50 (MDA-MB-231) was greater than 30 µM.
CN(C)C(=O)c1ccc(NC2CN(C3CCN(C(=O)C4(c5ccc(F)cc5)CCC4)CC3)C2)cc1Cl [Compound 1.49, 2-chloro-4-(1-(1-(1-(4-fluorophenyl)cyclobutanecarbonyl)piperidin-4-yl)azetidin-3-ylamino)-N,N-dimethylbenzamide] was tested, and the IC50 (HCT116) was 17.8 µM, the EC50 (LXR beta) was 15.9 µM and the IC50 (A549) was 15.1 µM. The IC50 (THP1) was greater than 30 µM and the IC50 (MDA-MB-231) was 15 µM.
With CN(C)C(=O)c1ccc(-c2nnc(N3CCC4(CCN(S(=O)(=O)c5ccccc5Cl)CC4)C3)s2)cc1Cl [Compound 1.50, 2-chloro-4-(5-(8-(2-chlorophenylsulfonyl)-2,8-diazaspiro[4.5]decan-2-yl)-1,3,4-thiadiazol-2-yl)-N,N-dimethylbenzamide] the IC50 (HCT116) was 15.4 µM, the IC50 (HepG2) was 23.8 µM and the IC50 (A549) was 14.4 µM. It also gave an IC50 (MCF7) of 14.5 µM, an IC50 (THP1) of 14.6 µM and an IC50 (MDA-MB-231) of 17 µM.
For CN(C)C(=O)c1ccc(-c2nnc(N3CC4(CCN(S(=O)(=O)c5ccccc5Cl)CC4)C3)s2)cc1Cl [Compound 1.51, 2-chloro-4-(5-(7-(2-chlorophenylsulfonyl)-2,7-diazaspiro [3.5]nonan-2-yl)-1,3,4-thiadiazol-2-yl)-N,N-dimethylbenzamide], the IC50 (HCT116) was 4.46 µM, the IC50 (HepG2) was greater than 29 µM and the IC50 (A549) was 4.47 µM. It also gave an IC50 (MCF7) of 4.18 µM, an IC50 (THP1) of 5.93 µM and an IC50 (MDA-MB-231) of 5.44 µM.
CN(C)C(=O)c1ccc(NC2CN(C3CCN(C(=O)C4(c5c(F)cccc5Cl)CCCC4)CC3)C2)cc1Cl [Compound 1.56, 2-chloro-4-(1-(1-(1-(2-chloro-6-fluorophenyl)cyclopentanecarbonyl)piperidin-4-yl)azetidin-3-ylamino)-N,N-dimethylbenzamide] was tested, and the IC50 (HCT116) was 12.4 µM, the IC50 (HepG2) was 12.9 µM and the IC50 (A549) was 12.4 µM. The IC50 (MCF7) was 12.8 µM, the IC50 (THP1) was 14.5 µM and the IC50 (MDA-MB-231) was 13.8 µM.
Compound CC(C)C(O)(C(=O)N1CCC(N2CC[C@@H](Nc3ccc(C(=O)N(C)C)c(Cl)c3)C2)CC1)C(F)(F)F (stereo partly drawn) [Compound 1.58, 2-chloro-4-((3R)-1-(1-(2-hydroxy-3-methyl-2-(trifluoromethyl)butanoyl)piperidin-4-yl)pyrrolidin-3-ylamino)-N,N-dimethylbenzamide] has an IC50 (HCT116) greater than 30 µM, an IC50 (HepG2) greater than 30 µM and an IC50 (A549) greater than 30 µM. It also gave an IC50 (MCF7) greater than 30 µM, an IC50 (THP1) greater than 30 µM and an IC50 (MDA-MB-231) greater than 30 µM.
For CN(C)C(=O)c1ccc(OC2CN(C3CCN(C(=O)[C@](O)(c4ccccc4)C(F)(F)F)CC3)C2)cc1Cl [Compound 1.77, (R)-2-chloro-N,N-dimethyl-4-(1-(1-(3,3,3-trifluoro-2-hydroxy-2-phenylpropanoyl)piperidin-4-yl)azetidin-3-yloxy)benzamide], the EC50 (LXR beta) was 1.53 µM, the IC50 (HepG2) was greater than 30 µM and the EC50 (LXR alpha) was 19.5 µM.
CC1CC(N2CC(Nc3ccc(C(=O)N(C)C)c(Cl)c3)C2)CCN1S(=O)(=O)c1ccccc1Cl (centres unmarked) [Compound 1.84, 2-chloro-4-(1-(1-(2-chlorophenylsulfonyl)-2-methylpiperidin-4-yl)azetidin-3-ylamino)-N,N-dimethylbenzamide] gave an EC50 (LXR beta) of 1.14 µM and an EC50 (LXR alpha) of 16.1 µM.
